From paper PMC9599461, “Stereoselectivity in the Membrane Transport of Phenylethylamine Derivatives by Human Monoamine Transporters and Organic Cation Transporters 1, 2, and 3” (Biomolecules, 2022)
Read-outs that look alike come from different tables or passages of the source.

How the values were obtained:
DAT = DAT (Homo sapiens, UniProt Q01959); assay: Stereoselective uptake into DAT-overexpressing HEK293 cells; details: for Saturable net uptake: result in words;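 on all read-outs here: intracellular accumulation measured by chiral HPLC-MS/MS in stably transfected HEK293 cells, normalized to total protein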
SERT [1] = target: T1, SERT (Homo sapiens, UniProt P31645); assay: in vitro;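 further: uptake into HEK293 cells stably expressing human SERT over 2 min, enantiomers measured in cell lysate by chiral HPLC-MS/MS, normalized to total protein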
OCT1 = target: T2, OCT1 (Homo sapiens, UniProt O15245); assay: Stereoselective uptake into OCT1-overexpressing HEK293 cells; details: for Clint ± SEM: quotient of vmax over Km; for selectivity ratio at 2 min: human;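 on all read-outs here: enantiomers quantified inside cells by chiral HPLC-MS/MS, uptake normalized to total protein from bicinchoninic acid assay, substrates applied in HBSS+ buffer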
T2 sequence (O15245 1-554): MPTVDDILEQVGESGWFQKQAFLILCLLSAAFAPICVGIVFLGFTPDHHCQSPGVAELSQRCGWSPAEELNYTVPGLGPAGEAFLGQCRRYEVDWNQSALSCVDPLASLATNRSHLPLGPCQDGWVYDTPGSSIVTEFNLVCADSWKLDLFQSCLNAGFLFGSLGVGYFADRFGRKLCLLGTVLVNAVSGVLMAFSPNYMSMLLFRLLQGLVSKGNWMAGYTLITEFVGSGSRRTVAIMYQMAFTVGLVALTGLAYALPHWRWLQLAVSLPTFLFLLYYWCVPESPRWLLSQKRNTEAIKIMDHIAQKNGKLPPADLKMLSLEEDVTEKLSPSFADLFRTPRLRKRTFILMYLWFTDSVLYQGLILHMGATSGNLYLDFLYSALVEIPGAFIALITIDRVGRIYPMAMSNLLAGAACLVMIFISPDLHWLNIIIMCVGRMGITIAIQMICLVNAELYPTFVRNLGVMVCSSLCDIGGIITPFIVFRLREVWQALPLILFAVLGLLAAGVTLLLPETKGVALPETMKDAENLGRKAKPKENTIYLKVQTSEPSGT

OCT2 [2] = target: T3, OCT2 (Homo sapiens, UniProt O15244); assay: Stereoselective uptake into OCT2 (wild-type)-overexpressing HEK293 cells; details: for Clint ± SEM / selectivity ratio at 2 min: OCT2; for Clint ± SEM: quotient of vmax over Km; for selectivity ratio at 2 min: human, ratio between enantiomers
T3 sequence (O15244 1-555 S270A): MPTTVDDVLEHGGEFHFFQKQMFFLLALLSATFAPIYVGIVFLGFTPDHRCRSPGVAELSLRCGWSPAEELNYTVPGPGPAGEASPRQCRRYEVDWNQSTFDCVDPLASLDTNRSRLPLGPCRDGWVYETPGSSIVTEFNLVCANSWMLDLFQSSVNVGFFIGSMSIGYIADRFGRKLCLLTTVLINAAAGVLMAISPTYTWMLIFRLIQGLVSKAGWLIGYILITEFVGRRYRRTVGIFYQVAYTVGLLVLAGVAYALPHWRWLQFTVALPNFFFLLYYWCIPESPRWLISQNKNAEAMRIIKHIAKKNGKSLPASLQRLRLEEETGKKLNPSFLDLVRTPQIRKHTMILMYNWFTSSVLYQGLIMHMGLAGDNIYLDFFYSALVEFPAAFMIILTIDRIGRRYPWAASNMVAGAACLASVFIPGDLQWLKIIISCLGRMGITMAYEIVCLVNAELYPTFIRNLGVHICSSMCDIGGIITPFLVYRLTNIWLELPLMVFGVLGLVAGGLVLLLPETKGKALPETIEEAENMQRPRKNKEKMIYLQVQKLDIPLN

OCT2 [3] = target: T4, OCT2 (Homo sapiens, UniProt O15244, S270A); assay: as above; details: OCT2, ratio between enantiomers
T4 sequence (O15244 1-555 S270A): T3 sequence (O15244 1-555 S270A)

OCT3 = target: T5, OCT3 (Homo sapiens, UniProt O75751); assay: Stereoselective uptake into OCT3-overexpressing HEK293 cells; details: for Clint ± SEM / Stereoselectivity Vmax / Stereoselectivity Km: OCT3; for Clint ± SEM: quotient of vmax over Km; for Stereoselectivity Vmax / Stereoselectivity Km: ratio between enantiomers; for Stereoselectivity Vmax: given as for (R) or for 1; for Stereoselectivity Km: given as for (R) or for 1 (first-eluting); for selectivity ratio at 2 min: human;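 on all read-outs here: intracellular accumulation in HEK293 cells measured by chiral HPLC-MS/MS after a 2 min substrate exposure at 37 °C, uptake normalized to total protein (bicinchoninic acid assay)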
T5 sequence (O75751 1-556): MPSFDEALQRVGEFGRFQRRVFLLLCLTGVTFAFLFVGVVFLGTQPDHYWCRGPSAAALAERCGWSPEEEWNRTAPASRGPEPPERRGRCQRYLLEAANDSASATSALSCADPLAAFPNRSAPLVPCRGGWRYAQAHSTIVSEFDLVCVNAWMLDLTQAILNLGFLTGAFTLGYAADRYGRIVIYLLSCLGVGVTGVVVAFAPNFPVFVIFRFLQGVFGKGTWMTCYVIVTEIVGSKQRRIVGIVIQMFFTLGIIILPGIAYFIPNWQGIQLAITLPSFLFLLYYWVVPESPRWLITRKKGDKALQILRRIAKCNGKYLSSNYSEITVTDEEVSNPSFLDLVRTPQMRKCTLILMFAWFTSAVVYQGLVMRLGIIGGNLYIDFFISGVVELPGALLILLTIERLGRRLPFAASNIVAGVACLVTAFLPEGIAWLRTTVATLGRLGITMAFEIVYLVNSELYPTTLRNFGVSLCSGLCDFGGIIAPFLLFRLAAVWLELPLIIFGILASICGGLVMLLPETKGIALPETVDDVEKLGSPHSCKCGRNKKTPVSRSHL

SERT [4] = target: T1, SERT; assay: Stereoselective uptake into SERT-overexpressing HEK293 cells; details: for Clint ± SEM: quotient of vmax over Km;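 on all read-outs here: uptake into HEK293 cells stably expressing human SERT over 2 min, enantiomers measured in cell lysate by chiral HPLC-MS/MS, normalized to total protein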
[5] = test system: OCT2 wild-type versus A270S variant; assay: in vitro; details: human, Transporter selectivity, OCT2 wild-type versus A270S, 100 μM racemic substance, two minutes
NET = NET (Homo sapiens, UniProt P23975); assay: Stereoselective uptake into NET-overexpressing HEK293 cells; details: for Clint ± SEM: quotient of vmax over Km; for Stereoselectivity Vmax / Stereoselectivity Km: ratio between enantiomers; for Stereoselectivity Vmax: given as for (R) or for 1; for selectivity ratio at 2 min: human;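 on all read-outs here: intracellular enantiomers quantified in cell lysates by chiral HPLC-MS/MS after a 2 min substrate incubation, with uptake normalized to total cellular protein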
Protocol: All transport experiments were carried out in HEK293 cells stably overexpressing human MATs or OCTs. […] All cells were regularly cultivated in DMEM supplemented with 10% (v/v) FCS, penicillin (100 U/mL) and streptomycin (100 μg/mL)and kept in culture for no longer than 30 passages.
For the uptake experiments, 300,000 cells were plated in poly-D-lysine precoated 24-well plates 48 h ahead of the transport experiment. On the day of experiment, cells were initially washed once with 37 °C pre-warmed HBSS+ (Hanks buffered salt solution supplemented with 10 mM HEPES) and subsequently incubated with the substrates dissolved in pre-warmed HBSS+ for exactly two minutes. Incubation was stopped by adding ice-cold HBSS+ followed by two washing steps. After this, cells were lysed with 80% acetonitrile containing 10 ng/mL milnacipran as internal standard for high-performance liquid chromatography coupled to tandem mass spectrometry (HPLC-MS/MS) analysis. For every experiment, two additional wells per cell line were lysed using RIPA buffer for protein quantification. Total protein was quantified using the bicinchoninic acid assay [42]. This was later used for normalization of the uptake data.
Intracellularly accumulated test substances were quantified by HPLC-MS/MS analysis using a Shimadzu Nexera HPLC system with a SIL-30AC autosampler, a CTO-20AC column oven, a LC-30AD pump, and a CBM-20A controller (Shimadzu, Kyoto, Japan). Stereoselective chromatography was carried out on a [sequence] CBH HPLC column (100 × 3 mm inner dimension with 5 μM particle size; Sigma-Aldrich, Darmstadt, Germany) with a corresponding 10 × 3 mm guard column. Reversed phased chromatography was carried out using an ammonium acetate (NH4Ac) buffered aqueous mobile phase with isopropyl alcohol (IPA) as organic solvent. […] The order of elution of the enantiomers was obtained from available reference literature [43] or by applying enantiopure reference compounds to the chiral HPLC. […] Given the structural similarity of the investigated substances and the fact that separation was performed on the same column with almost identical mobile phases, we assume that this order of elution for our compound set is always the (R)- before the (S)-enantiomer.
Detection was performed with an API 4000 tandem mass spectrometer (AB SCIEX, Darmstadt, Germany) operating in multiple-reaction-monitoring mode. Quantification was performed using the Analyst 1.6.2 software (AB SCIEX, Darmstadt, Germany) and quantified by comparison to standard curves with known concentrations.
All uptake data were normalized to protein content to account for variation in the number of seeded sells. Transporter-mediated net uptake was calculated by subtracting uptake into empty vector-transfected control cells from uptake into transporter-transfected cells. Kinetic parameters were then determined after non-linear regression following the Michaelis–Menten equation (v = vmax × [S]/(Km + [S])) using GraphPad Prism (Version 5.01 for Windows, GraphPad Software, La Jolla, CA, USA). Vmax refers to the maximum transport velocity and Km is defined as the substance concentration required to reach half of vmax. The intrinsic clearance Clint was calculated as the quotient of vmax over Km.

OCT2 A270S variant = assay: Stereoselective uptake into OCT2 A270S variant-overexpressing HEK293 cells; details: 100 μM racemic substance, two minutes;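 further: uptake into HEK293 cells stably overexpressing human OCT2 variants, intracellular enantiomers quantified by chiral HPLC-MS/MS and normalized to total protein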
[6] = SERT, ratio between enantiomers, given as for (S) or for 2
[7] = Stereoselectivity Km, OCT1, ratio between enantiomers, given as for (S) or for 2 (second-eluting)
[8] = Stereoselectivity Vmax, OCT1, ratio between enantiomers, given as for (R) or for 1
[9] = Stereoselectivity Vmax, given as for (R) or for 1

T1 sequence (P31645 whole entry): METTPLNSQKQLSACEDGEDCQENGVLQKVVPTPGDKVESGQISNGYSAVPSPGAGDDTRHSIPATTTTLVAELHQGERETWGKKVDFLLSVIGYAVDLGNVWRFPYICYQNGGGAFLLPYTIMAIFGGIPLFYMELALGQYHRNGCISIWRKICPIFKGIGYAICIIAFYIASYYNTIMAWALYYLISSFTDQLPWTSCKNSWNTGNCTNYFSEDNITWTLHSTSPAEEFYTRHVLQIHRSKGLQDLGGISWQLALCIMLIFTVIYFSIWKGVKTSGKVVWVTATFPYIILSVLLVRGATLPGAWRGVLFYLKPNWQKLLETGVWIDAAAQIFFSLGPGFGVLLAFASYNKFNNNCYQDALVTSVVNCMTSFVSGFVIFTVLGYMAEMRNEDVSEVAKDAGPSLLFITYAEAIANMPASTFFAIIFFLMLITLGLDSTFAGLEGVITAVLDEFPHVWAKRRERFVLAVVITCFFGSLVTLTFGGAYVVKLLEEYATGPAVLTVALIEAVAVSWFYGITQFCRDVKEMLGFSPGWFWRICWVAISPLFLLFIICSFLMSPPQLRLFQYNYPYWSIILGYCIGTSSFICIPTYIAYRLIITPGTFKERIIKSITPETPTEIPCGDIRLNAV
NET, sequence (P23975 whole entry): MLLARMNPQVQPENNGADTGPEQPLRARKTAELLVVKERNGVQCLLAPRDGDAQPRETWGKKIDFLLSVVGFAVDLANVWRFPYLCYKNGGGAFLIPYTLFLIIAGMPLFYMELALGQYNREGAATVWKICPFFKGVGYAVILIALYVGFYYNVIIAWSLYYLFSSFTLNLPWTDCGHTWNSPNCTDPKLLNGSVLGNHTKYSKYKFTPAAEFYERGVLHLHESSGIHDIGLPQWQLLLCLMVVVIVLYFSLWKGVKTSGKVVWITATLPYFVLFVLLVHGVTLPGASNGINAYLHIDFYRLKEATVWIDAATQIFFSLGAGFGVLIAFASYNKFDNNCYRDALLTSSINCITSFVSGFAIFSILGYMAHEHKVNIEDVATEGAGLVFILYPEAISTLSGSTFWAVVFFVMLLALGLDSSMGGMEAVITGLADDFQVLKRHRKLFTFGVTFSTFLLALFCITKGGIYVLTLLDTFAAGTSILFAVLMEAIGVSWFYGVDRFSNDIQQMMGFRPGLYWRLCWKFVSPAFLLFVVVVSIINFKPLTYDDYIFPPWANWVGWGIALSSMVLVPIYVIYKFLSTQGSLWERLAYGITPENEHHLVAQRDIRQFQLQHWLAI
DAT, sequence (Q01959 whole entry): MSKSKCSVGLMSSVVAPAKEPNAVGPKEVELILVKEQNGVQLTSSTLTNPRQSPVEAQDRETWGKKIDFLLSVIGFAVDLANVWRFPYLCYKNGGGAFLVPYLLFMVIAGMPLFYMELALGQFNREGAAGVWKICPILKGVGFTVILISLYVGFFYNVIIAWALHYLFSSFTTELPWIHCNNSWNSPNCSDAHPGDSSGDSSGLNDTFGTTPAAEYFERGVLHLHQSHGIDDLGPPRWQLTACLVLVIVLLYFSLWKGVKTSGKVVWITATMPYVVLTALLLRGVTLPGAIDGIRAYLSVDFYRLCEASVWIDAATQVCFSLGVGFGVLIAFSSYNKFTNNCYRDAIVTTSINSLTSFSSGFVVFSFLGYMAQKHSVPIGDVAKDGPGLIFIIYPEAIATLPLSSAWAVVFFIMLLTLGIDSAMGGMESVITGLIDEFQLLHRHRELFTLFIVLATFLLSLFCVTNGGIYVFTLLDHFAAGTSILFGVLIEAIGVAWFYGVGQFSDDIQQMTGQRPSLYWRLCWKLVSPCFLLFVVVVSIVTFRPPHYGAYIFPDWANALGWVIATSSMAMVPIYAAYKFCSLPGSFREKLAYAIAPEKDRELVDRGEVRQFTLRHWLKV

Row | Structure (SMILES) | Saturable net uptake (DAT; DAT) | selectivity ratio (SERT [1]) | Clint ± SEM (OCT1; OCT1) | Clint ± SEM (OCT2 [2]) | Clint ± SEM (OCT3) | Stereoselectivity Vmax (OCT3) | Stereoselectivity Km (OCT3) | selectivity ratio at 2 min (OCT3) | Clint ± SEM (SERT [4]; SERT) | Stereoselectivity Vmax (SERT [4]; [6]) | selectivity ratio at 2 min, 100 μM ([5]; given as for WT) | Clint ± SEM (NET; NET) | Stereoselectivity Vmax (NET; NET) | selectivity ratio at 2 min (NET) | selectivity ratio at 2 min (OCT1; [7]) | selectivity ratio at 2 min (OCT1; [8]) | selectivity ratio at 2 min (OCT2 [2]; [9]) | other results
1 | COc1cc(C(O)CN)ccc1O (single isomer, unassigned) [Normetanephrine-1, Normetanephrine] | No saturable net uptake | 1.28 | 2.46 mL × g Protein^−1 × min^−1 | 9.24 mL × g Protein^−1 × min^−1 | 19.4 mL × g Protein^−1 × min^−1 | 1.09 fold | 1.22 fold | 1.12 | 2.23 mL × g Protein^−1 × min^−1 | 1.67 fold | 1.21 | 2.71 mL × g Protein^−1 × min^−1 | 1.06 fold | 1.28 | – | – | – | Stereoselectivity Vmax (OCT1; OCT1, ratio between enantiomers, given as for (R) or for 1): 1.47 fold; Stereoselectivity Km (OCT1; OCT1, ratio between enantiomers, given as for (R) or for 1 (first-eluting)): 1.59 fold; Stereoselectivity ClInt (OCT1; OCT1, ratio between enantiomers, given as for (S) or for 2): 1.08 fold; Stereoselectivity ClInt (OCT2 [3]; given as for (R) or for 1): 1.56 fold; Stereoselectivity Km (OCT2 [3]; given as for (R) or for 1 (first-eluting)): 1.32 fold; Stereoselectivity Vmax (OCT2 [3]; given as for (S) or for 2): 2.06 fold; Stereoselectivity Km (SERT [4]; SERT, ratio between enantiomers, given as for (R) or for 1 (first-eluting)): 1.08 fold; Stereoselectivity Km (NET; NET, given as for (R) or for 1 (first-eluting)): 1.35 fold
2 | CNC[C@H](O)c1ccc(O)cc1 [(R)-Synephrine] | – | 1.13 | 21.0 mL × g Protein^−1 × min^−1 | 24.6 mL × g Protein^−1 × min^−1 | 26.3 mL × g Protein^−1 × min^−1 | 1.05 fold | 1.11 fold | 1.06 | 0.69 mL × g Protein^−1 × min^−1 | 1.35 fold | 1.41 | 37.3 mL × g Protein^−1 × min^−1 | 1.80 fold | 4.7 | 1.28 | 1.35 | 2.05 | Clint ± SEM (DAT; DAT, quotient of vmax over Km): 23.1 mL × g Protein^−1 × min^−1; Stereoselectivity Vmax (DAT; DAT, ratio between enantiomers, given as for (R) or for 1): 1.84 fold; Stereoselectivity Km (DAT; DAT, ratio between enantiomers, given as for (S) or for 2 (second-eluting)): 1.21 fold; selectivity ratio at 2 min (DAT; human): 2.23; selectivity ratio at 2 min (OCT1; Stereoselectivity ClInt, OCT1, ratio between enantiomers, given as for (R) or for 1 (also 1.00-fold for 1/2)): 1.73; selectivity ratio at 2 min (OCT2 [2]; Stereoselectivity ClInt, given as for (S) or for 2): 1.01; selectivity ratio at 2 min (OCT2 [2]; Stereoselectivity Km, given as for (R) or for 1 (first-eluting)): 2.07; Stereoselectivity Km (SERT [4]; SERT, ratio between enantiomers, given as for (S) or for 2 (second-eluting)): 1.52 fold; Stereoselectivity Km (NET; NET, given as for (S) or for 2 (second-eluting)): 2.61 fold
3 | CNCC(O)c1ccc(O)c(OC)c1 (single isomer, unassigned) [Metanephrine-1, Metanephrine] | No saturable net uptake | 1.01 | 8.09 mL × g Protein^−1 × min^−1 | 20.6 mL × g Protein^−1 × min^−1 | 25.9 mL × g Protein^−1 × min^−1 | 1.19 fold | 1.19 fold | 1 | 0.58 mL × g Protein^−1 × min^−1 | – | – | – | – | – | 1.09 | 1.06 | 2.13 | Vmax ± SEM (OCT1; HEK293 cells overexpressing human OCT1, racemic substrate, two minutes, net uptake): 1082 pmol × mg Protein^−1 × min^−1; selectivity ratio at 2 min (OCT1; Stereoselectivity ClInt): 1.16; Vmax ± SEM (OCT2 [2]; HEK293 cells overexpressing human OCT2, racemic substrate, two minutes, net uptake): 1127 pmol × mg Protein^−1 × min^−1; selectivity ratio at 2 min (OCT2 [2]; Stereoselectivity ClInt, given as for (R) or for 1): 2.66; selectivity ratio at 2 min (OCT2 [2]; Stereoselectivity Km, given as for (S) or for 2 (second-eluting)): 1.25; Net uptake by A270S variant in comparison to the wild-type (OCT2 A270S variant): 120%; Stereoselectivity Km (SERT [4]): 1.09 fold; Stereoselectivity Vmax (SERT [4]): 1.08 fold; selectivity ratio at 2 min, 100 μM ([5]; given as for A270S): 1.2; Saturable net uptake (NET; NET, result in words): No saturable net uptake
